In ChEMBL document CHEMBL4828737, “Glutathione-responsive prodrug conjugates for image-guided combination in cancer therapy” (Eur J Med Chem, 2021):
Each block holds one molecule with its values, some of them ahead of it. The source made the active and inactive calls. The rule behind the calls is not given here.

How the values were obtained:
HeLa [1] = assay: Antiproliferative activity against human HeLa cells assessed as cell growth inhibition at 0.1 to 100 micromol/L measured after 24 hrs by MTT assay relative to control; type: cell-based; conditions: dose 0.1-100 µmol/L
HeLa [2] = assay: Antitumor activity against human HeLa cells xenografted in BALB/c nude mouse assessed as reduction in tumor volume at 5 mg/kg, iv administered every 3 days for 15 days; type: functional, organism-based; conditions: time 15.0 day
[3] = Toxicity in human HeLa cells xenografted in BALB/c nude mouse assessed as change in body weight at 5 mg/kg, iv administered every 3 days for 15 days; type: organism-based; conditions: in vivo, 360 h, time 15 day
[4] = GSH-mediated prodrug activation assessed as increase in fluorescence intensity at 10 uM by UV-vis absorption spectroscopy
[5] = Drug uptake in tumor of BALB/c nude mouse xenografted with human HeLa cells 10 uM, iv measured after 6 to 36 hrs by fluorescence imaging based IVIS optical imaging analysis; type: ADME, organism-based, Neoplasm; conditions: in vivo, time 6-36 hrs
[6] = Toxicity in BALB/c nude mouse xenografted with human HeLa cells assessed as histological changes in spleen at 5 mg/kg, iv administered every 3 days for 15 days by H and E staining based microscopic analysis; type: organism-based; conditions: in vivo, 360 h, time 15 day
HepG2 [7] = assay: Antiproliferative activity against human HepG2 cells assessed as cell growth inhibition at 0.1 to 100 micromol/L measured after 48 hrs by MTT assay relative to control; type: functional, cell-based; conditions: dose 0.1-100 µmol/L
[8] = Toxicity in human HeLa cells xenografted in BALB/c nude assessed as histological changes in heart at 5 mg/kg, iv administered every 3 days for 15 days by H and E staining based microscopic analysis; type: organism-based; conditions: in vivo, 360 h, time 15 day
[9] = Drug uptake in tumor of BALB/c nude mouse xenografted with human HeLa cells 10 uM, iv measured after 24 hrs by fluorescence imaging based IVIS optical imaging analysis; type: ADME, organism-based, Neoplasm; conditions: in vivo
[10] = GSH-mediated prodrug activation assessed as increase in fluorescence intensity at 10 uM measured up to 2 hrs by real time fluorescence spectra
HEK-293T [11] = assay: Antiproliferative activity against human HEK293T cells assessed as cell growth inhibition at 0.1 to 100 micromol/L measured after 24 hrs by MTT assay relative to control; type: functional, cell-based; conditions: dose 0.1-100 µmol/L
[12] = Toxicity in BALB/c nude mouse xenografted with human HeLa cells assessed as histological changes in kidney at 5 mg/kg, iv administered every 3 days for 15 days by H and E staining based microscopic analysis; type: organism-based; conditions: in vivo, 360 h, time 15 day
[13] = Toxicity in human HeLa cells xenografted in BALB/c nude assessed as histological changes in tumor at 5 mg/kg, iv administered every 3 days for 15 days by H and E staining based microscopic analysis; type: organism-based; conditions: in vivo, 360 h, time 15 day
HepG2 [14] = assay: Antiproliferative activity against human HepG2 cells assessed as cell growth inhibition at 0.1 to 100 micromol/L measured after 24 hrs by MTT assay relative to control; type: functional, cell-based; conditions: dose 0.1-100 µmol/L
HeLa [15] = assay: Induction of apoptosis in human HeLa cells assessed as viable cells at 30 uM incubated for 24 hrs by Annexin V/PI double staining base flow cytometry analysis (reference value: 82.3 %); type: functional; conditions: read-out: Activity
HeLa [16] = assay: Induction of apoptosis in human HeLa cells assessed as early apoptotic cells at 30 uM incubated for 48 hrs by Annexin V/PI double staining base flow cytometry analysis (reference value: 2.59 %); type: functional
[17] = Toxicity in human HeLa cells xenografted in BALB/c nude mouse assessed as histological changes in liver at 5 mg/kg, iv administered every 3 days for 15 days by H and E staining based microscopic analysis; type: organism-based; conditions: in vivo, 360 h, time 15 day
MCF7 [18] = assay: Antiproliferative activity against human MCF7 cells assessed as cell growth inhibition at 0.1 to 100 micromol/L measured after 48 hrs by MTT assay relative to control; type: functional, cell-based; conditions: dose 0.1-100 µmol/L
[19] = Prodrug activation in human HeLa cells assessed as increase in fluorescence at 10 uM within 6 hrs in the presence of N-ethylmalemide by confocal laser scanning microscopic method; type: cell-based
HeLa [20] = assay: Induction of apoptosis in human HeLa cells assessed as late apoptotic cells at 30 uM incubated for 48 hrs by Annexin V/PI double staining base flow cytometry analysis (reference value: 12.5 %); type: functional
HeLa [21] = assay: Induction of apoptosis in human HeLa cells assessed as necrotic cells at 30 uM incubated for 48 hrs by Annexin V/PI double staining base flow cytometry analysis (reference value: 2.65 %); type: functional
HeLa [22] = assay: Induction of apoptosis in human HeLa cells assessed as viable cells at 30 uM incubated for 48 hrs by Annexin V/PI double staining base flow cytometry analysis (reference value: 82.3 %); type: functional; conditions: read-out: Activity
[23] = GSH-mediated prodrug activation assessed as increase in fluorescence intensity at 10 uM measured at pH 5 by real time fluorescence spectra; conditions: pH 5, 10 µM
[24] = Prodrug activation in human HeLa cells assessed as increase in fluorescence at 10 uM within 6 hrs by confocal laser scanning microscopic method; type: cell-based
HeLa [25] = assay: Antiproliferative activity against human HeLa cells assessed as cell growth inhibition at 0.1 to 100 micromol/L measured after 48 hrs by MTT assay relative to control; type: functional, cell-based; conditions: dose 0.1-100 µmol/L
HEK-293T [26] = assay: Antiproliferative activity against human HEK293T cells assessed as cell growth inhibition at 0.1 to 100 micromol/L measured after 48 hrs by MTT assay relative to control; type: cell-based; conditions: dose 0.1-100 µmol/L
MCF7 [27] = assay: Antiproliferative activity against human MCF7 cells assessed as cell growth inhibition at 0.1 to 100 micromol/L measured after 24 hrs by MTT assay relative to control; type: functional, cell-based; conditions: dose 0.1-100 µmol/L
HeLa [28] = assay: Induction of apoptosis in human HeLa cells assessed as early apoptotic cells at 30 uM incubated for 24 hrs by Annexin V/PI double staining base flow cytometry analysis (reference value: 2.59 %); type: functional
[29] = GSH-mediated prodrug activation assessed as increase in fluorescence intensity at 10 uM measured at 525 nm emission in presence of 0 to 500 uM of GSH by UV-vis absorption spectroscopy
HeLa [30] = assay: Induction of apoptosis in human HeLa cells assessed as late apoptotic cells at 30 uM incubated for 24 hrs by Annexin V/PI double staining base flow cytometry analysis (reference value: 12.5 %); type: functional
HeLa [31] = assay: Induction of apoptosis in human HeLa cells assessed as necrotic cells at 30 uM incubated for 24 hrs by Annexin V/PI double staining base flow cytometry analysis (reference value: 2.65 %); type: functional

Drug metabolism [4]: Metabolite_Detected | Drug uptake [5]: Active | Drug uptake [9]: Active | Drug metabolism [10]: Metabolite_Detected | Drug metabolism [19]: Metabolite_Detected | Drug metabolism [23]: Metabolite_Detected | Drug metabolism [24]: Metabolite_Detected | Drug metabolism [29]: Metabolite_Detected
Structure (SMILES): COc1ccc(OC(=O)CCCSSCCCC(=O)O[C@@H](C(=O)O[C@H]2C[C@@]3(O)[C@@H](OC(=O)c4ccccc4)[C@@H]4[C@]5(OC(C)=O)CO[C@@H]5C[C@H](O)[C@@]4(C)C(=O)[C@H](OC(C)=O)C(=C2C)C3(C)C)[C@@H](NC(=O)c2ccccc2)c2ccccc2)c(-c2nc3ccccc3s2)c1
Activity (HeLa [1]): Toxic | Activity (HeLa [2]): Active | Activity [3]: Non-Toxic | Activity [6]: Non-Toxic | Activity (HepG2 [7]): Active | Activity [8]: Non-Toxic | Activity (HEK-293T [11]): Active | Activity [12]: Non-Toxic | Activity [13]: Non-Toxic | Activity (HepG2 [14]): Active | viability at 30 µM (HeLa [15]): 60.9% | Activity (HeLa [16]): 14.4% | Activity [17]: Non-Toxic | Activity (MCF7 [18]): Active | Activity (HeLa [20]): 72.4% | Activity (HeLa [21]): 4.86% | viability at 30 µM (HeLa [22]): 8.39% | Activity (HeLa [25]): Active | Activity (HEK-293T [26]): Toxic | Activity (MCF7 [27]): Active | Activity (HeLa [28]): 6.79% | Activity (HeLa [30]): 28.7% | Activity (HeLa [31]): 3.59%

Structure (SMILES): CC(=O)O[C@H]1C(=O)[C@@]2(C)[C@H]([C@H](OC(=O)c3ccccc3)[C@]3(O)C[C@H](OC(=O)[C@H](O)[C@@H](NC(=O)c4ccccc4)c4ccccc4)C(C)=C1C3(C)C)[C@]1(OC(C)=O)CO[C@@H]1C[C@@H]2O [PACLITAXEL]
Activity (HeLa [2]): Active | Activity [3]: Non-Toxic | viability at 30 µM (HeLa [15]): 52.4% | Activity (HeLa [16]): 4.55% | Activity (HeLa [20]): 66.6% | Activity (HeLa [21]): 2.12% | viability at 30 µM (HeLa [22]): 26.7% | Activity (HeLa [28]): 10.6% | Activity (HeLa [30]): 34.7% | Activity (HeLa [31]): 2.24%
